Our source for the IC50, response vs control in vivo and melting point values is patent US9145399B2, “Substituted bicyclic triazole derivatives as gamma secretase modulators” (Janssen Pharmaceuticals, Inc., priority 2010, dated 2015).

Data set [1] deals with Aβtotal. Put plainly: Screening for γ-secretase-modulating activity in SKNBE2 cells carrying APP 695 wild type: Aβtotal in cell supernatant (Alphalisa). As to conditions: Homo sapiens, overnight incubation. Format: cell-based. In short, it runs like this: (§1)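 SKNBE2 cells expressing wild-type APP695 were incubated overnight at 37° C with test compound at several concentrations. Aβ42 and Aβtotal in supernatant were measured by AlphaLISA sandwich immunoassays. IC50 came from 4-parameter non-linear fits of percent of compound-free control versus log concentration.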

Data set [2] has as its system Aβ42. The data set can be described thus: In vivo efficacy: Aβ42 lowering in brain of non-transgenic mice after single oral dose (ELISA). Set-up: species or system mouse. As to conditions: Mus musculus; dose 30 mg/kg oral dosing; soluble brain fraction, animals sacrificed after 4 h; untreated animals (Ctrl) set at 100; read-out: Aβ42 (% vs Ctrl) _Mean. From the text:
(§2) To determine whether acute administration of an Aβ42 lowering agent would reduce Aβ42 levels in vivo, non-transgenic rodents, e.g. mice or rats were used. Animals treated with the Aβ42 lowering agent were examined and compared to those untreated or treated with vehicle and brain levels of soluble Aβ42 and total Aβ were quantitated by standard techniques, for example, using ELISA. Treatment periods varied from hours (h) to days and were adjusted based on the results of the Aβ42 lowering once a time course of onset of effect could be established.
(§3) A typical protocol for measuring Aβ42 lowering in vivo is shown but it is only one of many variations that could be used to optimize the levels of detectable Aβ. For example, Aβ42 lowering compounds were formulated in 20% of Captisol® (a sulfobutyl ether of β-cyclodextrin) in water or 20% hydroxypropyl β cyclodextrin. The Aβ42 lowering agents were administered as a single oral dose or by any acceptable route of administration to overnight fasted animals. After 4 h, the animals were sacrificed and Aβ42 levels were analysed.
(§4) Blood was collected by decapitation and exsanguinations in EDTA-treated collection tubes. Blood was centrifuged at 1900 g for 10 minutes (min) at 4° C. and the plasma recovered and flash frozen for later analysis. The brain was removed from the cranium and hindbrain. The cerebellum was removed and the left and right hemisphere were separated. The left hemisphere was stored at −18° C. for quantitative analysis of test compound levels. The right hemisphere was rinsed with phosphate-buffered saline (PBS) buffer and immediately frozen on dry ice and stored at −80° C. until homogenization for biochemical assays.
(§5) Mouse brains from non-transgenic animals were resuspended in 8 volumes of 0.4% DEA (diethylamine)/50 mM NaCl containing protease inhibitors (Roche-11873580001 or 04693159001) per gram of tissue, e.g. for 0.158 g brain, add 1.264 ml of 0.4% DEA. All samples were homogenized in the FastPrep-24 system (MP Biomedicals) using lysing matrix D (MPBio #6913-100) at 6 m/s for 20 seconds. Homogenates were centrifuged at 221.300×g for 50 min. The resulting high speed supernatants were then transferred to fresh eppendorf tubes. Nine parts of supernatant were neutralized with 1 part 0.5 M Tris-HCl pH 6.8 and used to quantify Aβtotal and Aβ42.
(§6) To quantify the amount of Aβtotal and Aβ42 in the soluble fraction of the brain homogenates, Enzyme-Linked-Immunosorbent-Assays were used. Briefly, the standards (a dilution of synthetic Aβ1-40 and Aβ1-42, Bachem) were prepared in 1.5 ml Eppendorf tube in Ultraculture, with final concentrations ranging from 10000 to 0.3 pg/ml. The samples and standards were co-incubated with HRPO-labelled N-terminal antibody for Aβ42 detection and with the biotinylated mid-domain antibody 4G8 for Aβtotal detection. 50 μl of conjugate/sample or conjugate/standards mixtures were then added to the antibody-coated plate (the capture antibodies selectively recognize the C-terminal end of Aβ42, antibody JRF/cAβ42/26, for Aβ42 detection and the N-terminus of Aβ, antibody JRF/rAβ/2, for Aβtotal detection). The plate was allowed to incubate overnight at 4° C. in order to allow formation of the antibody-amyloid complex. Following this incubation and subsequent wash steps the ELISA for Aβ42 quantification was finished by addition of Quanta Blu fluorogenic peroxidase substrate according to the manufacturer's instructions (Pierce Corp., Rockford, Il). A reading was performed after 10 to 15 min (excitation 320 nm/emission 420 nm).
In this model at least 20% Aβ42 lowering compared to untreated animals would be advantageous.
The results are shown in Table 4 (dose 30 mg/kg oral dosing) (value for untreated animals as control (Ctrl) was set at 100): […]

Data set [3] deals with Aβ42. The data set can be described thus: Screening for γ-secretase-modulating activity in SKNBE2 cells carrying APP 695 wild type: Aβ42 in cell supernatant (Alphalisa). Format: cell-based. Particulars: Homo sapiens, SKNBE2, SKNBE2 cells carrying APP 695 wild type, overnight incubation. In short, it runs like this: as §1
Data set [4] concerns Aβtotal. Put plainly: In vivo efficacy: Aβtotal in brain of non-transgenic mice after single oral dose (ELISA). Particulars: Mus musculus; dose 30 mg/kg oral dosing; soluble brain fraction, animals sacrificed after 4 h; untreated animals (Ctrl) set at 100; read-out: Aβtotal (% vs Ctrl)_Mean. Further details: species or system mouse.
Excerpt: as §2, §3, §4, §5, §6
For Aβtotal detection, a Streptavidine-Peroxidase-Conjugate was added, followed 60 min later by an additional wash step and addition of Quanta Blu fluorogenic peroxidase substrate according to the manufacturer's instructions (Pierce Corp., Rockford, Ill). A reading was performed after 10 to 15 min (excitation 320 nm/emission 420 nm). […]
A general note: In an ELISA, binding on a coated surface is turned into a signal by an enzyme label.

Take `COc1cc(Nc2nc3n(n2)CCCC3c2ccc(F)cc2C)ccc1-c1ccnc(C)c1` (stereo not shown) [Compound 91, 8-(4-fluoro-2-methylphenyl)-5,6,7,8-tetrahydro-N-[3-methoxy-4-(2-methyl-4-pyridinyl)phenyl]-[1,2,4]triazolo[1,5-a]pyridin-2-amine]: the melting point (commonly the temperature of the solid-liquid transition) came to 161.4 °C. The IC50 (in general, the concentration that inhibits the measured activity by half) in data set [1] turned out to be 8510 nM. In addition, the response vs control in vivo at 30 mg/kg in data set [2] worked out at 51%. Moreover, the IC50 in data set [3] was determined as 25 nM. Besides, in data set [4], the response vs control in vivo at 30 mg/kg turned out to be 92%.
For `COc1cc(F)cc(C2CCCn3nc(Nc4ccc(-c5ccnc(C)c5)cc4)nc32)c1` (stereo not shown) [Compound 185, 8-(3-fluoro-5-methoxyphenyl)-5,6,7,8-tetrahydro-N-[4-(2-methyl-4-pyridinyl)phenyl]-[1,2,4]triazolo[1,5-a]pyridin-2-amine] the same measures were 175.1 °C, above 10000 nM, 52%, 28 nM and 96%.
